In patent US20230082929A1, “METHODS OF GENERATING AND USING SENESCENT-INDUCED CELLS FOR TREATMENT OF CANCER AND COMPOSITIONS RELATING THERETO” (The Wistar Institute of Anatomy and Biology, priority 2020, published 2023):

How the values were obtained:
[1] = target: T1, TOP1cc (Mus musculus, UniProt Q04750); assay: Slot blot analysis of TOP1cc levels in CCF of senescent ID8-Defb29/Vegf-a cells; type: cell-based; details: HMGB2 knockdown Cisplatin-induced senescent ID8-Defb29 Vegf-a cells
T1 construct: endogenous in cells; host or cells: UPK10 mouse ovarian cancer cells, sorted senescent and non-senescent fractions
T1 sequence (Q04750 1-767): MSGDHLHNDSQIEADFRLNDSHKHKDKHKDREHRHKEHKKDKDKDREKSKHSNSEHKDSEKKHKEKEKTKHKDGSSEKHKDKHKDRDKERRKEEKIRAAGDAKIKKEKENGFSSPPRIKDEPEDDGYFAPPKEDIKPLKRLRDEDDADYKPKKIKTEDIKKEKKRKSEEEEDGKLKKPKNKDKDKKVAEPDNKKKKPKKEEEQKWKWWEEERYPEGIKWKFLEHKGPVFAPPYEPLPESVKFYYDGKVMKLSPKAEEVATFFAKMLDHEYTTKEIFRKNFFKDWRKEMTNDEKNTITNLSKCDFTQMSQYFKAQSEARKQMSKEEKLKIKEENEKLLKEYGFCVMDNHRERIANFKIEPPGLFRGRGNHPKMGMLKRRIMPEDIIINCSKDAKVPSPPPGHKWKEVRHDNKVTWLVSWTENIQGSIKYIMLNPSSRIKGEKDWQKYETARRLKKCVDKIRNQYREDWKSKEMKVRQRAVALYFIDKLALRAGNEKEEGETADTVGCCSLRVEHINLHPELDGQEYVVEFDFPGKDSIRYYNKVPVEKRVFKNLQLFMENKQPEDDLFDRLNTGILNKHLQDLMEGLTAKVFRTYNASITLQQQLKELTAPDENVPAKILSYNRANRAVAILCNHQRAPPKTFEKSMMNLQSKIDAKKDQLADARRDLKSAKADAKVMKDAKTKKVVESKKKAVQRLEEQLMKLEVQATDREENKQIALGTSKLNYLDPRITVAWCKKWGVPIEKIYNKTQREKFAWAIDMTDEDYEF
Method: A CCF purification protocol was developed by modifying previous protocols (Shimizu et al., 1996; Ly et al., 2017). Briefly, 500 million senescent cells were collected, resuspended, and incubated in DMEM containing 10 μg/mL cytochalasin B for 30 minutes at 37° C. After wash once with ice-cold PBS, the cell pellet was gently dounce homogenized in ice-cold pre-chilled lysis buffer (10 mM Tris-HCl, 2 mM magnesium acetate, 3 mM CaCl2), 0.32 M sucrose, 0.1 mM EDTA, 1 mM DTT, 0.1% NP-40, 0.15 mM spermine, 0.75 mM spermidine, 10 μg/ml cytochalasin B, pH 8.5, 4° C.) with ten slow strokes of a loose-fitting pestle. Release of nuclei was confirmed by DAPI-staining and microscopy. The homogenate was fixed with 1% formaldehyde for 10 minutes, and mixed well with an equal volume of 1.6M sucrose buffer (10 mM Tris-HCl, 5 mM magnesium acetate, 0.1 mM EDTA, 1 mM DTT, 0.3% BSA, 0.15 mM spermine, 0.75 mM spermidine, pH 8.0, 4° C.). A 10 mL portion of homogenate was layered on the top of sucrose buffer gradient (20 mL and 15 mL containing 1.8M and 1.6M of sucrose, respectively) in a 50 mL tissue culture tube. The tubes were centrifuged at 1200×g for 20 minutes at 4° C. After centrifugation, the upper 3 mL of the gradient was discarded, and the next 15 mL containing CCFs was collected. […] DNA concentration was measured using Nanodrop and 5 μg DNA was used for slot blot analysis.

[2] = tested on: 2′3′-cGAMP; assay: 2′3′-cGAMP ELISA in IMR90 cells; type: cell-based, human; details: senescent IMR90 cells with HMGB2 knockdown
Method: 2′ 3′-cGAMP ELISA Kit (Cayman chemical. Cat. No:501700) was used to analyze the endogenous level of 2′ 3′-cGAMP following the manufacturer's instructions. 1×10^5 IMR90 cells were incubated in 200 μL lysis buffer (ThermoFisher, Cat. No: 78501) on ice for 30 minutes. The 2′ 3′-cGAMP ELISA was performed following the manufacturer's instructions.

[3] = tested on: ID8-Defb29/Vegf-a ovarian cancer; assay: In vivo orthotopic syngeneic ID8-Defb29/Vegf-a ovarian cancer mouse model
Method: For orthotopic syngeneic model, luciferase expressing ID8-Defb29/Vegf-a with inducible shHMGB2 cells were pretreated with 2 μM Cisplatin for 48 hours to induce CCFs. 5×10^6 cells were i.p. injected into the peritoneal cavity of C57BL/6 mouse (female, 6-8 weeks old, CRL/NCI) (Zhu et al., 2016). Animals were randomly assigned to different treatment groups (10 mice/group). The mice in control groups were fed with control rodent diet (Fisher Scientific. Cat. No: 14-726-309). For the HMGB2 knockdown groups, mice were fed with Bio-Serv™ Doxycycline Grain-Based Rodent Diet (Fisher Scientific. Cat. No: 14-727-450) to induce HMGB2 knockdown. Tumor progression was monitored twice a week using a Xenogen IVIS Spectrum in vivo bioluminescence imaging system. Images were analyzed using Live Imaging 4.0 software. Tumor-bearing mice were treated by i.p. injection with isotype control IgG or anti-PD-L1 antibody (Bio X Cell, Cat. No: B7-H1, clone 10 F.9G2, 10 mg kg^-1) every 3 days with or without simultaneous TOP1 inhibitor camptothecin treatment (Selleck Cat. No: S1288; 8 mg kg^-1). For survival analysis, the Wistar Institute IACUC guideline was followed in determining the time for ending the survival experiments (tumor burden exceeds 10% of body weight).

[4] = target: T2, TOP1cc (Homo sapiens, UniProt P11387); assay: TOP1cc induction in CPT-treated IMR90 cells (chromatin fragment extraction, slot blot); type: cell-based; parameters: endogenous in cells; host or cells: IMR90 human fibroblasts (senescent or proliferating, with or without shHMGB2); details: IMR90 cells treated with two doses of CPT (5 μM or 50 μM, 30 minutes)
T2 sequence (P11387 1-765): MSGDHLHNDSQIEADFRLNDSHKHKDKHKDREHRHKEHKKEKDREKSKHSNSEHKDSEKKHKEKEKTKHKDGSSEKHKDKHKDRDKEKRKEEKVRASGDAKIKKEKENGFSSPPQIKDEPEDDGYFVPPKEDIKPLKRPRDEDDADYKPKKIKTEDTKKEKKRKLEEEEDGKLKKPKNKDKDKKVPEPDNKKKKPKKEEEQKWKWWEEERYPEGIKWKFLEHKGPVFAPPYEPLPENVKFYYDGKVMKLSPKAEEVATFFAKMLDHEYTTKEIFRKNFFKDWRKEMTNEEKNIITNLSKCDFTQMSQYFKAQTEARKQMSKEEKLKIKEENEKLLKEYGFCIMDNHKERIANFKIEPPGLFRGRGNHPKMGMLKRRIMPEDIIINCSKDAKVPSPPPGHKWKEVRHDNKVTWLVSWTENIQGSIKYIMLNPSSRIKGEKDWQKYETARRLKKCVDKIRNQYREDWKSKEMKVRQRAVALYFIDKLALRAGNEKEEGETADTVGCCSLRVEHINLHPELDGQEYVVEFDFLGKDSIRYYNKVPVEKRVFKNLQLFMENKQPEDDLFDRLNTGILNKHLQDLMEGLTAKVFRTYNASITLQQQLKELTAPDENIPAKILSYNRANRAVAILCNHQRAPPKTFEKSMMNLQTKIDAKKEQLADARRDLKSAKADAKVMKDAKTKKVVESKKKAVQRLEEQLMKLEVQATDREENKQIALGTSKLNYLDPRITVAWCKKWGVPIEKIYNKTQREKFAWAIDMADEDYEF
Method: For chromatin fragments extraction, proliferating IMR90 cells were treated with 5 μM or 50 μM Camptothecin for 30 minutes to induce low or high levels of TOP1cc, respectively. Cells then were incubated with hypotonic buffer (10 mM Tris, pH 7.4, 30 mM NaCl, 3 mM MgCl2, 0.1% NP40), supplemented with protease inhibitor cocktail, on ice for 10 mins (Dou et al., 2017). The cells were then centrifuged at 300×g for 3 mins at 4° C. The supernatant was carefully removed, and the resulting pellets were incubated with benzonase buffer (50 mM Tris pH 7.5, 300 mM NaCl, 0.5% NP40, 2.5 mM MgCl2) with protease inhibitor cocktail, supplemented with 10 U of benzonase (Sigma Cat. No: E1014), on ice, for 30 min. The product was centrifuged again at 300×g for 3 mins at 4° C., and benzonase was inactivated by addition of 15 mM EDTA. The resulting supernatant contains chromatin fragments and soluble nuclear proteins. For the negative controls, buffer without benzonase was used and the resulting supernatant only contains soluble nuclear proteins without chromatin fragments. The product was then diluted 5 times with PBS. Slot blot were performed to confirm the TOP1cc level.
Human Topoisomerase 1 ICE Assay Kit (TopoGEN. Cat. No:TG1020-1) was used to isolate protein-DNA samples which contain TOP1-DNA covalent complex (TOP Ice) for slot blot analysis. […] Quantification was performed using NIH Image J software.

CC[C@@]1(O)C(=O)OCc2c1cc1n(c2=O)Cc2cc3ccccc3nc2-1 [CPT, Camptothecin]
TOP1cc levels in CCF [1]: Rescue of the decrease in TOP1cc levels | 2′3′-cGAMP levels [2]: rescued | anti-PD-L1 treatment response (tumor growth by luciferase bioluminescence) ([3]; HMGB2 knockdown tumors, CPT 8 mg kg-1 i.p. with anti-PD-L1 antibody 10 mg kg-1 every 3 days): significantly restored the anti-PD-L1 response | body weight of the treated mice ([3]; anti-PD-L1 antibody-treated group, during treatment period): did not affect the body weight | survival of mice ([3]; mice bearing HMGB2 knockdown tumors, CPT with anti-PD-L1 antibody): rescued the survival | TOP1cc induction [4]: induced TOP1cc in a dose-dependent manner
